This note sets out measurements from PubChem BioAssay (NCI).

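All cell lines were grown in 96-well plates and treated with compound for 48 hours. At the TGI there is no net growth.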

Common to all, as to assay: DTP human tumour cell line panel, 48 h
Assay [1] concerns TK-10 renal.
The test system of assay [2] is HCT-15 colon.
Assay [3] has as its system BT-549 breast.
The test system of assay [4] is 786-0 renal.
For assay [5], the system named is MCF7 breast.
Assay [6] deals with MDA-N.
For assay [7], the system named is EKVX NSCLC.
Assay [8] has as its system UACC-257 melanoma.
In assay [9] the test system is SN12C renal.
Assay [10] concerns HOP-92 NSCLC.

As a reminder, the TGI is the concentration giving total growth inhibition. A lower TGI goes with more potent growth arrest. For `O=S1(=O)c2ccccc2NC(=S)CC1c1ccccc1` (stereo unspecified), the TGI in [1], in assay [2], in [3], in assay [4], in [5] and in [6] was more than 100 µM in each case. In addition, the TGI in assay [7], in [8] and in assay [9] was more than 100 µM in each case.
Take `CC(C)CNC(=O)Cn1c(-c2ccccc2)cc2ccccc21`: the TGI in assay [1], in assay [2], in assay [3], in [4], in assay [5] and in assay [6] was more than 100 µM each time. Also, the TGI in assay [7], in [8] and in assay [9] was more than 100 µM throughout.
Turning to `COc1cc(C2SCC(=O)N2c2ccc(Oc3ccc(Cl)cc3)c(Cl)c2)cc(OC)c1OC` (stereo unspecified), the TGI in [1] is 33.9 µM; in [2], more than 100 µM; in assay [3], 32.5 µM; in assay [4], 33.9 µM; in assay [5] it was more than 100 µM; in assay [6], 45.1 µM. Besides, the TGI in [7] came out at 56.2 µM; in assay [8], 33.3 µM; in [9] it was 56.2 µM.
Turning to `CC(=O)c1cc2c(s1)C(=O)c1ccccc1C2=O`, the TGI in assay [1] was 42.3 µM; in assay [3] it was 7.75 µM; in [4], more than 71.3 µM; in assay [5], 6.77 µM; in assay [6], 4.74 µM; in assay [7] it was 15.9 µM. In addition, the TGI in assay [8] was 3.15 µM; in [10] it was 21.6 µM; in assay [9], 16.3 µM.
For the compound `O=C(N[C@H]1c2ccsc2/C(=N/O)[C@H]1O)C(F)(F)F`, the TGI in [1], in assay [2], in assay [3], in assay [5], in assay [6] and in assay [7] was more than 100 µM each time. The TGI in [8], in assay [10] and in assay [9] was more than 100 µM throughout.
For `O=C(NCc1ccc(Cl)cc1)c1cc2sccc2nc1C(F)(F)F`, the TGI was more than 100 µM in assay [1]; more than 100 µM in assay [3]; 39.8 µM in [4]; more than 100 µM in assay [5]; more than 100 µM in assay [6]; more than 100 µM in assay [7]. Further, the TGI in assay [8], in assay [10] and in assay [9] was more than 100 µM throughout.
With `COc1ccc(C2C(C#N)=C(S)N(C3OC(CO)C(O)C(O)C3O)C(c3ccccc3)=C2C(C)=O)cc1` (stereo unspecified), the total growth inhibition concentration (TGI) in [1], in assay [2], in assay [3], in assay [4], in [5] and in [6] was more than 100 µM in each case. Also, the TGI in assay [8], in [10] and in assay [9] was more than 100 µM each time.
Consider `C[C@]12CC[C@@H]3c4ccc(OC(=O)c5ccccc5)cc4CC[C@H]3[C@@H]1CC[C@@H]2Oc1c2ccccc2nc2ccccc12`, for which the total growth inhibition concentration (TGI) is more than 50 µM in assay [1]; 31.5 µM in assay [2]; 25.1 µM in assay [3]; 14.3 µM in [4]; 46.3 µM in assay [5]; 11.6 µM in [6]. Also, the results for the TGI in [7], in assay [8] and in [10] were 8.96 µM, 38.6 µM and 36.9 µM, respectively.
Regarding `S=C(S)NCC1CCC(CNC(=S)S)CC1` (stereo unspecified), the total growth inhibition concentration (TGI) in assay [1] was 51.7 µM; in assay [2] it was 65 µM; in assay [3], more than 100 µM; in assay [4], 18.6 µM; in assay [5], 81.3 µM; in [6], 81.4 µM. Further, the TGI was more than 100 µM in assay [7], 87.1 µM in [8] and 44 µM in assay [9].
On to `O=C1c2cccc3cccc(c23)C(=O)N1CCCNOCCONCCCN1C(=O)c2cccc3cccc(c23)C1=O`, for which the TGI in assay [1], in [2], in assay [3], in [4], in assay [5] and in assay [6] was more than 100 µM throughout. Also, the TGI in assay [7], in assay [8] and in assay [10] was more than 100 µM in each case.
As to `Cc1ccc(S(=O)(=O)c2c(O)c3ccccc3n(C)c2=O)cc1`, the TGI in [2], in [3], in assay [4], in assay [5], in assay [6] and in assay [7] was more than 100 µM throughout. For the same compound, the TGI in [8], in assay [10] and in assay [9] was more than 100 µM each time.
For the compound `CC(=O)O[C@H]1C(=O)[C@@]2(C)[C@H]([C@H](OC(=O)c3ccccc3)[C@]3(O)C[C@H](OC(=O)[C@H](O)[C@@H](NC(=O)CC(C)(C)C)c4ccccc4)C(C)=C1C3(C)C)C1(OC(C)=O)CO[C@@H]1C[C@@H]2O` (stereo partly specified), the total growth inhibition concentration (TGI) in [1] was more than 10 µM; in assay [2], more than 5.78 µM; in [3], more than 10 µM; in [4], more than 10 µM; in assay [5] it was more than 10 µM; in assay [6], more than 10 µM. Besides, the TGI in [7], in [8] and in assay [9] was more than 10 µM throughout.
With `CN(C)CCNc1ncnc2nc(-c3ccc4ccccc4c3)[nH]c12`, the TGI in [1], in assay [2], in assay [3], in assay [4], in assay [5] and in [6] was more than 100 µM each time. The TGI in assay [7], in [8] and in assay [9] was more than 100 µM throughout.
As to `COc1cc(S(=O)(=O)Nc2ccc(-c3csc(N4C(=O)CSC4c4ccccc4)n3)cc2)ccc1Cl` (stereo unspecified), the TGI in [2] is more than 100 µM; in assay [3] it was more than 100 µM; in [4], more than 100 µM; in assay [5], 87.4 µM; in assay [6], more than 100 µM; in assay [7], more than 100 µM. For the same compound, the TGI in [8] is more than 100 µM; in [10] it was 54.4 µM; in [9], more than 100 µM.
